Measurements: patent publication US20060292076A1, “Antimicrobial mediated ozone generation” (priority 2002, published 2006)
Entries after “also recorded” stand apart in the source; their conditions may differ.

Key:
[1] = H2O2 formation with hematoporphyrin IX sensitization and visible light (sensitization and quenching assays); assay type: biochemical; conditions: D2O or NaN3 (40 mM)
Method: Sensitization and Quenching Assays. A solution of 31127 (100 μl of horse IgG, 6.7 μM) in PBS (pH 7.4, 4% dimethylformamide) and hematoporphyrin IX (40 μM) was placed in proximity to a strip light. Hydrogen peroxide concentration was determined as described herein. […]
Assay for H2O2 production as a function of the efficiency of ^1O2 formation via ^3O2 sensitization with hematoporphyrin IX: The assay is a modification of a procedure developed by H. Sakai and co-workers, Proc. SPE-Int. Soc. Opt. Eng., 2371, 264 (1995). In brief, the horse poly-IgG (1 mg/mL) in PBS (50 mM, pH 7.4) and hematoporphyrin IX (40 μM) is irradiated with white light from a transilluminator. Aliquots are removed (50 μL) and the concentration of H2O2 and 3-aminophthalic acid measured simultaneously. H2O2 concentration was measured by the amplex red assay (Zhou et al., Anal. Biochem., 253, 162 (1997)). 3-Aminophthalic acid concentration was measured by reversed-phase HPLC on a Hitachi D4000 series machine with an Adsorbosphere-C18 column, a UV detector at 254 nm, and a mobile phase of acetonitrile/water (0.1% TFA) of 18:82 at 1 mL/min (retention time of luminol=7.4 min and 3-aminophthalic acid 3.5 min). The concentrations of luminol and 3-aminophthalic acid were determined by comparison of peak height and area to control samples. […]

[2] = tested on: E. coli; assay: Bactericidal assay, E. coli (strain not singled out or both serotypes); assay type: cell-based
Method: In a typical experiment, a culture of E. coli (in log phase growth, OD600=0.2-0.3) was repeatedly pelleted (3×3,500 rpm) and resuspended in PBS (pH 7.4). The PBS suspended cells were then added to glass vials and cooled to 4° C. Hematoporphyrin IX (40 μM) and antibody (20 μM) were added and the vials were either placed on a light box (visible light, 2.8 mW cm^−2) or in the dark at 4° C. and incubated for 1 h. Viability was determined by recovery of colony forming units (CFUs) on agar plates. Each experiment was performed at least in duplicate.
In a typical experiment, a culture of E. coli (in log phase growth, OD600=0.2-0.3) was repeatedly washed in PBS by pelleting (3×3,500 rpm) the cells and resuspending them in PBS (pH 7.4). The PBS suspended cells were then added to glass vials and cooled to 4° C. Hematoporphyrin IX (40 μM) and antibody (20 μM) were added and the vials were either placed on a light box (visible light, 2.8 mW cm^−2) or in the dark at 4° C. and incubated for 1 h. Viability was determined by recovery of colony forming units (CFUs) on agar plates. Each experiment was performed at least in duplicate.

[3] = Production of hydrogen peroxide by immunoglobulins and proteins under UV irradiation (Amplex Red assay); assay type: biochemical; conditions: for ability of non-immunoglobulin proteins to reduce ^1O2 / generate H2O2: irradiation in PBS
Method: All assays were carried out in PBS (10 mM phosphate/160 mM sodium chloride, pH 7.4). Commercial protein solution samples were dialyzed into PBS as necessary. Amplex Red hydrogen peroxide assay kits (A-12212) were obtained from Molecular Probes.
Antibody/Protein Irradiation. Unless otherwise stated, the assay solution (100 μl, 6.7 μM protein in PBS, pH 7.4) was added to a glass vial, sealed with a screw-cap, and irradiated with either UV (312 nm, […] Fischer-Biotech transilluminator) or visible light.
Quantitative Assay for Hydrogen Peroxide. An aliquot (20 μl) from the protein solution was removed and added into a well of a 96-well microtiter plate (Costar) containing reaction buffer (80 μL). Working solution (100 μl/400 μM Amplex Red reagent ½ units/ml horseradish peroxidase) was then added, and the plate was incubated in the dark for 30 min. The fluorescence of the well components was then measured using a CytoFluor Multi well Plate Reader (Series 4000, PerSeptive Biosystems, Framingham, Mass.; Ex/Em: 530/580 nm). The hydrogen peroxide concentration was determined using a standard curve. All experiments were run in duplicate, and the rate is quoted as the mean of at least two measurements.

[4] = Consumption of hydrogen peroxide by catalase (peroxide stick test); assay type: biochemical; conditions: 1 min after addition of catalase
Method: Consumption of Hydroen Peroxide by Catalase. A solution of EP2-19G12 (100 μl of mouse IgG, 20 μM in PBS, pH 7.4) was irradiated with UV light for 30 min, after which time the concentration of hydrogen peroxide was determined by stick test (EM Quant Peroxide Test Sticks) to be 2 mg/liter.

## [2H]O[2H] [Clone D2O, D2O]
[1]
  rate of formation of H2O2 by horse IgG with HP (40 μM) in visible light in the presence of additive: increased

## O=C(O)CN(CCN(CC(=O)O)CC(=O)O)CC(=O)O [EDTA]
[2]; 2 mM
  effect of presence of EDTA on the survival of bacteria: no effect

## [N-]=[N+]=[N-].[Na+] [NaN3]
[1]
  rate of formation of H2O2 by horse IgG with HP (40 μM) in visible light in the presence of additive: reduced

## N[C@@H](Cc1c[nH]c2ccccc12)C(=O)O [Trp, tryptophan]
[3]; tryptophan 20 μM, FIG. 11A
  H2O2 production during near-UV irradiation: ca. 0.5 mole equivalents

## CC1=C(CCC(=O)O)c2cc3[nH]c(cc4nc(cc5[nH]c(cc1n2)c(C)c5C(C)O)C(C)=C4C(C)O)c(C)c3CCC(=O)O (stereo not shown) [hematoporphyrin IX]
[2]; HPIX 40 μM, white light 1 h, 4 °C
  bactericidal activity: negligible bactericidal activity

## chick ovalbumin: chick-egg ovalbumin
[3]
  ability of non-immunoglobulin proteins to reduce ^1O2 / generate H2O2: one of the most efficient proteins at reducing

## superoxide dismutase: enzyme, Sigma
[3]
  ability of non-immunoglobulin proteins to reduce ^1O2 / generate H2O2: the same as irradiation of PBS alone; also recorded: do not reduce; also recorded: does not reside

## β-galactosidase: non-immunoglobulin protein, Sigma
[3]; from its 39 Trp residues, FIG. 8A
  H2O2 generated by photo-production: 5.9 mol eq.

B1: RNase A: non-immunoglobulin protein, Amersham Pharmacia (protein, UniProt P61823 27-150, looked up)
Ribonuclease pancreatic: KETAAAKFERQHMDSSTSAASSSNYCNQMMKSRNLTKDRCKPVNTFVHESLADVQAVCSQKNVACKNGQTNCYQSYSTMSITDCRETGSSKYPNCAYKTTQANKHIIVACEGNPYVPVHFDASV
[3]
  ability of non-immunoglobulin proteins to reduce ^1O2 / generate H2O2: do not reduce
[3]; listed as RNaseA
  ability of non-immunoglobulin proteins to reduce ^1O2 / generate H2O2: does not reside

B2: catalase: enzyme that converts H2O2 to water and molecular oxygen (protein, UniProt P00432 2-527, looked up)
Catalase: ADNRDPASDQMKHWKEQRAAQKPDVLTTGGGNPVGDKLNSLTVGPRGPLLVQDVVFTDEMAHFDRERIPERVVHAKGAGAFGYFEVTHDITRYSKAKVFEHIGKRTPIAVRFSTVAGESGSADTVRDPRGFAVKFYTEDGNWDLVGNNTPIFFIRDALLFPSFIHSQKRNPQTHLKDPDMVWDFWSLRPESLHQVSFLFSDRGIPDGHRHMNGYGSHTFKLVNANGEAVYCKFHYKTDQGIKNLSVEDAARLAHEDPDYGLRDLFNAIATGNYPSWTLYIQVMTFSEAEIFPFNPFDLTKVWPHGDYPLIPVGKLVLNRNPVNYFAEVEQLAFDPSNMPPGIEPSPDKMLQGRLFAYPDTHRHRLGPNYLQIPVNCPYRARVANYQRDGPMCMMDNQGGAPNYYPNSFSAPEHQPSALEHRTHFSGDVQRFNSANDDNVTQVRTFYLKVLNEEQRKRLCENIAGHLKDAQLFIQKKAVKNFSDVHPEYGSRIQALLDKYNEEKPKNAVHTYVQHGSHLSAREKANL
[4]
  concentration of H2O2 after catalase: 0 mg/L
[2]; catalase 13 mU/mL
  extent of protection against antigen-specific antibodies: varied over a wide range
  protection against the bactericidal activity of non-specific antibodies: complete protection; also recorded: completely attenuated
